In PMC2765658 (Chemical communications (Cambridge, England), 2009):
Square brackets hold non-standard residues; d marks the D form. Peptide text beside a SMILES is read from it. Aib = CC(C)(N)C(=O)O

Assay: Thermal melting followed by CD ellipticity
Type: physicochemical
Conditions: CD ellipticity followed over 20 - 85 °C; 100 μM peptide in 20% TFE/H2O

CC(=O)NCCCC[C@H](NC(=O)[C@@H](NC(C)=O)C(C)C)C(=O)N[C@@H](CC(C)C)C(=O)NC(C)(C)C(=O)N[C@H](C(=O)N[C@@H](CCCCNC(C)=O)C(=O)N[C@@H](CC(C)C)C(N)=O)C(C)C [compound 17, Ac-Val-Lys(Ac)-Leu-Aib-Val-Lys(Ac)-Leu-NH2] (Ac-VK(Ac)L[Aib]VK(Ac)L-NH2)
thermal melting point (Tm): 48 °C
